Paper PMC11272821, “Mechanistic safety assessment via multi-omic characterisation of systemic pathway perturbations following in vivo MAT2A inhibition” (Archives of Toxicology, 2024)

Tested on: rat liver proteome
Assay: Liver label-free quantitative proteomics
Type: in vivo
Conditions: liver protein
Protocol: Liver tissue were homogenized in PreOmics iST buffer (PreOmics) using a bead ruptor. […] Peptides were purified using PreOmics iST cartridges and vacuum-centrifuged to dryness. Peptides were subsequently reconstituted in 2 vol% ACN and 0.1 vol% formic acid for single-run LC–MS analysis. Peptides were analyzed using a Thermo EASY-nLC1200 coupled online to an Exploris 480 Mass Spectrometer equipped with a Nanospray Flex Ion Source integrated with a column oven (PRSO-V1, Sonation) and a FAIMS unit. Peptides were separated using a nonlinear gradient and analyzed by acquiring spectra through Data Independent Acquisition (DIA). Data was analyzed using Spectronaut V15.7.2 (Biognosys AG) direct DIA analysis using an isoform Rat database (UniProt downloaded 22.02.2021) consisting of 9,746 protein entries utilizing the Pulsar search engine. Analysis settings were maintained to factory settings and identification was set to 1% false discovery rate (FDR) for precursor and protein level. Additional information is provided in Supplementary M&M.
Data analysis was performed using R Statistical Software (version 4.3.0). Proteomics, transcriptomics and metabolomics expression changes were visualised using heatmaps showing log2 fold change relative to control. In the heatmaps missing values were highlighted in grey.
Proteomics Analysis. Liver tissue was placed in vials containing 1.4 mm zirconia beads and taken up in 500 µL of PreOmics iST buffer (PreOmics). In a cold room set to 4 °C, tissues were homogenized utilizing a bead Ruptor 12 by shaking for 30 seconds for a total of 5 times using ‘high’ setting. Lysate was normalized using BCA assay (Thermo Fisher Scientific), and subsequently incubated at 95 °C for 10 min for reduction, and alkylation of proteins. A total of 50 μg from each sample was subjected to enzymatic cleavage for 3 h by adding equal amounts of endoproteinase Lys-C and trypsin (ThermoFisher Scientific, # A40009) in a 1:50 (wt/wt) enzyme:protein ratio. De-salting and purification were performed according to the PreOmics iST protocol on a styrene divinylbenzene reversed-phase sulfonate sorbent. Purified peptides were vacuum-centrifuged to dryness and reconstituted in double-distilled water with 2 vol% ACN and 0.1 vol% formic acid (FA) for single-run LC-MS analysis.
Peptides were loaded onto a ReproSil-Pur 120 C18AQ 1.9 µm in-house packed to a 5 µm tip 75u ID × 360u × 50 cm column using Thermo EASY-nLC 1200 coupled online to an Exploris 480 Mass Spectrometer equipped with a Nanospray Flex Ion Source integrated with a column oven (PRSO-V1, Sonation) maintained at 50 °C. Peptides were separated using a nonlinear gradient: Mobile phase A was 0.1 vol% FA and 3 vol% acetonitrile (ACN) in water, Mobile phase B was 90 vol% ACN and 0.1 vol % FA. The gradient was operated at 250 nL/min flowing 3 vol% B for 3 min, 3 to 5 vol% B over 3 min, 5 to 17 vol % B over 120 min, 17 to 24 vol % B over 26 min, 24 to 30 vol% B over 14 min, 30 to 85 vol% B over 3 min.

Cn1cc2cc(-c3cc4[nH]nc(C5CC5)c4n(-c4ccc(OC(F)F)cc4)c3=O)ccc2n1 [AZ’9567]
Hexa Log2FC (10mg/kg): -0.7
Hfe Log2FC (10mg/kg): 1.0
Hmgcs1 Log2FC (10mg/kg): 1.1
Hmgn2 Log2FC (10mg/kg): 1.0
Hnrnpa1 Log2FC (10mg/kg): 1.1
Hsd17b7 Log2FC (10mg/kg): 0.6
Idi1 Log2FC (10mg/kg): 0.9
Igf1 Log2FC (10mg/kg): -1.2
Kalrn Log2FC (10mg/kg): 0.6
Lipa Log2FC (10mg/kg): -0.8
Lrrc8d Log2FC (10mg/kg): 1.0
Lyrm2 Log2FC (10mg/kg): 0.9
Mat2a Log2FC (10mg/kg): 0.7
Mat2b Log2FC (10mg/kg): -2.4
Me1 Log2FC (10mg/kg): -1.5
Mettl7b Log2FC (10mg/kg): -0.8
Mettl26 Log2FC (10mg/kg): -1.6
Minpp1 Log2FC (10mg/kg): 1.1
Mospd1 Log2FC (10mg/kg): -0.7
Mt1 Log2FC (10mg/kg): 5.3
Mtr Log2FC (10mg/kg): 1.1
Mybbp1a Log2FC (10mg/kg): 1.1
Ncl Log2FC (10mg/kg): 0.8
Nob1 Log2FC (10mg/kg): 0.8
Orm1 Log2FC (10mg/kg): 1.2
Paics Log2FC (10mg/kg): 0.8
Pcyt1a Log2FC (10mg/kg): 0.6
Pklr.1 Log2FC (10mg/kg): -0.7
Prmt1 Log2FC (10mg/kg): 0.9
Pspc1 Log2FC (10mg/kg): 0.8
Ptprs Log2FC (10mg/kg): -1.3
Pum3 Log2FC (10mg/kg): 0.9
Rbm3 Log2FC (10mg/kg): 1.0
Rgn Log2FC (10mg/kg): -0.6
Rmdn1 Log2FC (10mg/kg): 0.7
S1pr1 Log2FC (10mg/kg): -0.6
Scd1 Log2FC (10mg/kg): -1.8
Sh3glb1 Log2FC (10mg/kg): 0.6
Sirt2 Log2FC (10mg/kg): 0.9
Slc6a13 Log2FC (10mg/kg): -1.3
Slc39a4 Log2FC (10mg/kg): -2.2
Sqle Log2FC (10mg/kg): 0.6
Srebf1 Log2FC (10mg/kg): 1.2
Sts Log2FC (10mg/kg): -0.7
Tat Log2FC (10mg/kg): -1.7
Tceanc2 Log2FC (10mg/kg): 1.4
Thg1l Log2FC (10mg/kg): 1
Tpmt Log2FC (10mg/kg): -1.2
Tspo Log2FC (10mg/kg): 2
Txnrd2 Log2FC (10mg/kg): -0.7
Ube2f Log2FC (10mg/kg): 0.9
Ugt2b1 Log2FC (10mg/kg): -1.6
Wdr45 Log2FC (10mg/kg): -0.9
Ythdc1 Log2FC (10mg/kg): 0.7
A2m Log2FC (30mg/kg): 3.7
Abcb1 Log2FC (30mg/kg): 2
Abhd1 Log2FC (30mg/kg): -1.5
Acaca Log2FC (30mg/kg): -1.2
Acbd4 Log2FC (30mg/kg): -0.6
Acly Log2FC (30mg/kg): -0.9
Acsl1 Log2FC (30mg/kg): -0.8
Acsl3 Log2FC (30mg/kg): -0.9
Acsl5 Log2FC (30mg/kg): -0.6
Acsm2 Log2FC (30mg/kg): 1.4
Akap5 Log2FC (30mg/kg): -1.1
Aldh1a1 Log2FC (30mg/kg): 2.0
Aldh1a7 Log2FC (30mg/kg): 1.7
Aldh16a1 Log2FC (30mg/kg): -0.5
Alpl Log2FC (30mg/kg): 1.8
Als2 Log2FC (30mg/kg): -1.1
Anpep Log2FC (30mg/kg): 1.4
Aox1 Log2FC (30mg/kg): -1.2
Apeh Log2FC (30mg/kg): -0.7
Apoc1 Log2FC (30mg/kg): -1.1
Aqp8 Log2FC (30mg/kg): 1.0
Asns Log2FC (30mg/kg): 1.0
Baat Log2FC (30mg/kg): -0.9
Banf1 Log2FC (30mg/kg): 0.9
Bhmt2 Log2FC (30mg/kg): 1.1
Bhmt Log2FC (30mg/kg): 1.8
Brix1 Log2FC (30mg/kg): 0.9
Ca5a Log2FC (30mg/kg): 0.9
Carnmt1 Log2FC (30mg/kg): -1.3
Cbs Log2FC (30mg/kg): -2.8
Ccnd1 Log2FC (30mg/kg): 16.3
Cdh1 Log2FC (30mg/kg): 0.8
Cdo1 Log2FC (30mg/kg): -4.1
Ces2c Log2FC (30mg/kg): 1.7
